{
  "source": "patent US20140248373A1",
  "about": "“ENHANCED PERFORMANCE HYDROGEN PEROXIDE FORMULATIONS COMPRISING PROTEINS AND SURFACTANTS” (Advanced BioCatalytics Corporation, priority 2008, published 2014)",
  "key": {"[1]": {"assay": "Oxidation-reduction potential by Square Wave Voltammetry (SWVA)", "assay_type": "physicochemical", "details": "for Wave Height, I, mA / E, mV vs. Ag/AgCl: SWVA; for E, mV vs. Ag/AgCl: absence of atmospheric oxygen", "procedure": "The compatibility of H2O2 and the protein/surfactant system was assessed using two approaches. […] Second, H2O2 concentration was determined over various time periods, up to one year, in the mixtures of hydrogen peroxide and protein/surfactant mixture, by volumetric titration with standardized permanganate solution. ORP measurements were conducted using Square Wave Voltammetry (SWVA) in a glove box, in the absence of atmospheric oxygen. Solutions 27% and 15% H2O2 with and without addition of 5% protein/surfactant were taken for these experiments."}, "S. aureus": {"tested_on": "S. aureus", "details": "for S. aureus Sample (CFU/mL): 5% Horse serum", "procedure": "(§1) The following tests were run with PS-2 at a 4% concentration (0.72% total surfactant), H2O2 at 3% and phosphoric acid at <0.1% to pH 2.9, Versene (EDTA) at 0.1%. Test methodology was Suspension Based, Quantitative Time-Kill at 22° C., but with 5% Horse serum added to show the effects of organic contaminant on antimicrobial activity. A control of 3% H2O2 was run in this example."}, "E. Coli": {"tested_on": "E. Coli", "details": "for E. Coli Sample (CFU/mL): 5% Horse serum", "procedure": "as §1"}, "[2]": {"details": "exposure time of up to 10 minutes, organic contamination"}},
  "note": "Where two headings read alike, the source gives them in different places.",
  "data": [
    {"smiles": "OO", "note": "[H2O2, 15%, hydrogen peroxide]", "values": [
      {"measurement": "Wave Height, I, mA", "setting": "[1]", "result": 85, "unit": "mA"},
      {"measurement": "E, mV vs. Ag/AgCl", "setting": "[1]", "result": "1,550 mV"}
    ]},
    {"smiles": "OO", "note": "[H2O2, 27%, hydrogen peroxide]", "values": [
      {"measurement": "Wave Height, I, mA", "setting": "[1]", "result": 92, "unit": "mA"},
      {"measurement": "E, mV vs. Ag/AgCl", "setting": "[1]", "result": "1,600 mV"},
      {"measurement": "Wave Height, I, mA", "setting": "[1]; listed as pure H2O2", "result": "about 92 mA"}
    ]},
    {"smiles": "OO", "note": "[Composition H2O2, hydrogen peroxide]", "values": [
      {"measurement": "Potential (apex of current wave)", "setting": "[1]; NHE", "result": "about 1.8 V"},
      {"measurement": "Potential (apex of current wave)", "setting": "[1]; against saturated silver/silver chloride electrode", "result": "about 1.6 V"}
    ]},
    {"smiles": "OO", "note": "[Control, 3% H2O2, hydrogen peroxide]", "values": [
      {"measurement": "S. aureus Sample (CFU/mL)", "setting": "S. aureus; 1 min", "result": "1.20E+07", "unit": "CFU/mL"},
      {"measurement": "S. aureus Sample (CFU/mL)", "setting": "S. aureus; 5 min", "result": "8.80E+06", "unit": "CFU/mL"},
      {"measurement": "S. aureus Sample (CFU/mL)", "setting": "S. aureus; 10 min", "result": "3.86E+06", "unit": "CFU/mL"},
      {"measurement": "S. aureus Sample (CFU/mL)", "setting": "S. aureus; \"Time Zero\"", "result": "1.04E+07", "unit": "CFU/mL"},
      {"measurement": "log reduction, gram positive pathogen (S. aureus)", "setting": "S. aureus; [2]", "result": 1, "unit": "log"},
      {"measurement": "E. Coli Sample (CFU/mL)", "setting": "E. Coli; 1 min", "result": "1.71E+07", "unit": "CFU/mL"},
      {"measurement": "E. Coli Sample (CFU/mL)", "setting": "E. Coli; 5 min", "result": "6.80E+06", "unit": "CFU/mL"},
      {"measurement": "E. Coli Sample (CFU/mL)", "setting": "E. Coli; 10 min", "result": "1.36E+06", "unit": "CFU/mL"},
      {"measurement": "E. Coli Sample (CFU/mL)", "setting": "E. Coli; \"Time Zero\"", "result": "1.99E+07", "unit": "CFU/mL"},
      {"measurement": "log reduction, gram negative pathogen (E. Coli)", "setting": "E. Coli; [2]", "result": 1, "unit": "log"}
    ]}
  ]
}
